# Reference: patent US20110280849A1, “TUMOR SUPPRESSION USING HUMAN PLACENTA-DERIVED INTERMEDIATE NATURAL KILLER CELLS AND IMMUNOMODULATORY COMPOUNDS” (Anthrogenesis Corporation, priority 2010, published 2011)
# Experiments:
# NK cells = assay: Flow cytometry of GZMB-positive NK cells after pomalidomide; assay type: cell-based, human
# cultured PINK cells = assay: qRT-PCR gene expression in lenalidomide- or pomalidomide-treated cultured PINK cells
# Source text: Quantitative real-time (qRT-PCR) analysis. Isolated RNA can then be used for cDNA synthesis using TAQMAN® Reverse Transcription Reagents (Applied Biosystems, Cat #N8080234) followed by real-time PCR analysis by the 7900HT Fast Real-Time PCR System using Human Immune Array (Applied Biosystems, Cat #4370573) and Human MicroRNA Array (Applied Biosystems, Cat #4384792).
# The paired t-test is used to determine if fold changes are equal in lenalidomide-treated and -untreated samples. […] The paired t-test is used to determine if fold changes are equal in treated and untreated samples.
smiles,measurement,setting,value
"Nc1cccc2c1C(=O)N(C1CCC(=O)NC1=O)C2=O (racemic) [pomalidomide, 4-amino-2-[(3RS)-2,6-dioxopiperidin-3-yl)-1H-isoindole-1,3(2H)-dione]",increase in percentage of GZMB-positive NK cells,NK cells,25%
same,increase in granzyme B (GZMB) gene expression,cultured PINK cells,60%±1.7%
